“Also recorded” adds a separate entry of the source.
Assays:
[1] = test system: MCF-7 breast cancer cells; assay: Morphological features of MCF-7 cells by inverse light microscopy; assay type: cell-based, human; conditions: 10 μM, 24 hours after treatment, compared to 100 μM Cisplatin apoptotic control
Method: The morphological features of MCF-7 cells following differential treatments were evaluated by inverse light microscopy as depicted in FIG. 4. Untreated cells served as the control, while 1% DMSO served as the solvent control and 100 μM Cisplatin indicates apoptotic cells. Cells were exposed to 10 μM of complexes (1)-(5). Morphological changes of the cell indicative of apoptosis include cell shrinkage and blebbing.
In the light of the decreased viability, the morphology of the cells was studied 24 hours after treatment with 10 μM of complexes (1), (2), (3), (4) and (5) to determine if apoptotic or necrotic features were present. The morphology of the cells was compared to the apoptotic control treated with 100 μM Cisplatin (FIG. 4).

[2] = test system: peripheral blood mononucleocytes (PBMCs); assay: Trypan blue viability assay of PBMCs (non-cancerous cells); assay type: cell-based; conditions: PBMCs from a healthy donor
Source text: To evaluate the relative toxicity on non-tumorigenic tissues, the ideal is to compare the effect of the compounds to a similar cell line that is non-cancerous. The Applicant is currently in the process of purchasing these cell lines and will evaluate the toxicity of the compounds in the near future. However, the Applicant did evaluate the effect of the complexes of the instant invention on peripheral blood mononucleocytes (PBMCs) isolated from fresh whole blood samples from a healthy donor. This already gives a good indication of the potential toxicity of complexes (1)-(5) in an in vivo environment.
The percentage viability of differentially treated PBMCs (peripheral blood mononucleocytes) for complexes (1)-(5) was determined by the Trypan blue viability assay, as shown in FIG. 10. Cells were treated with complexes (1)-(5). Cells treated with 0.1% DMSO and 100 μM Cisplatin were used as a vehicle and apoptotic control respectively. The SEM is indicated as error bars (n=2).

A-549 lung cancer cells [3] = assay: AlamarBlue viability and proliferation assay of A-549 lung cancer cells; assay type: cell-based; conditions: 2.5 μM, 24 h
Method: A-549 lung cancer cells were maintained in DMEM supplemented with 10% fetal calf serum (FCS), 1 mM pyruvate, 2 mM L-glutamine (Highveld Biological, Kelvin, RSA), 1% antibiotics (penicillin, streptomycin, amphotericin (Highveld Biological, Kelvin, RSA) and gentamycin (Invitrogen Life Technologies, Eugene, Oreg.)).
Cells (1×10^4 cells/well) were plated in 96-well flat-bottomed plates and incubated for 24 h at 37° C. with 5% CO2. All compounds were preheated for 30 min prior treatment. After 24 h compounds (2.5 μM) were mixed with supplemented media and incubated for 24 h. For the untreated control supplemented media was used. Since all compounds were dissolved in DMSO, a 1% DMSO was used as a vehicle control.
The A-549 lung cancer cells were incubated at 37° C. for 3 h in the presence of 10% AlamarBlue® viability and proliferation assay (Invitrogen Life Technologies, Eugene, Oreg.). […] Fluorescence was measured at 530-560 nm (excitation) and 590 nm (emission).
FIG. 27 is a bar chart showing percentage cellular viability of fibroblast cells and A-549 lung cancer cells treated with various molar ratios (complexes (6)-(9)) using the AlamarBlue® cell viability assay whereby the molar ratio of the silver(I) nitrate salt: phosphine ligand of 1:1, 1:2, 1:3 and 1:4 was assessed. Fluorescence was measured with 530 nm excitation wavelength and 590 nm emission wavelength. […]

Caspase-3/7 = assay: Caspase-Glo 3/7 assay in SNO-oesophageal cancer cells; assay type: cell-based; parameters: increase in Caspase-3/7 expression: unit not given here; conditions: 10 μM, 24 hours treatment
Method: The Caspase-Glo®3/7 assay was used to confirm that the structural changes observed are due to apoptotic cell death. In this luminescent based assay, a 1:1 ratio of the Caspase-Glo® reagent was added to treated cells into a microtiter plate. The plate was gently agitated for 30 seconds and incubated for 30 minutes at room temperature. The whole luminescent intensity was measured using a Synergy HT Multi-Detection Microplate reader, where the intensity of the luminescence is proportional to the Caspase-3/7 concentration.
The error bars where constructed based on the standard error of the mean (SEM) where n=6. The significant difference were calculated with respect to the vehicle control (P<**0.001). A relative increase in expression was observed throughout.

A-549 lung cancer cells [4] = assay: Morphological features of A-549 lung cancer cells by inverse light microscopy; assay type: cell-based; conditions: A-549 cells
Method: Morphological studies were conducted using a Zeiss Axiovert 25 Inverted Light Microscope [Carl Zeiss, Germany] with photographs taken with an Axio Cam Camera and Axio Vision 3.1 software [Carl Zeiss, Germany] at 100× magnification.
Morphological features of A-549 lung cancer cells evaluated by inverse light microscopy following differential treatments are indicated in FIG. 28: (A)=Untreated Negative Control; (B)=1% DMSO Vehicle Control (VC); (C)=100 μM Cisplatin (CDDP) Positive Apoptotic Control; (D)=Hydrogen Peroxide Positive Necrotic Control; (E)=complex (6) having a molar ratio of 1:1; (F)=Triphenylphosphine Ligand; (G)=complex (9) having a molar ratio of 1:4. Cells were visualised with Zeiss Axiovert 25 Inverted Light Microscope with photographs taken at 100× magnification. Morphology of A-549 lung cancer cells after differential treatments resembled that of the positive apoptotic control with characteristic apoptotic cellular morphology such as blebbing, rounding and cell shrinkage being observed.

C1#[N+][Ag]([P+](c2ccccc2)(c2ccccc2)c2ccccc2)([P+](c2ccccc2)(c2ccccc2)c2ccccc2)[S]C#[N+][Ag]([P+](c2ccccc2)(c2ccccc2)c2ccccc2)([P+](c2ccccc2)(c2ccccc2)c2ccccc2)[S]1 [complex (1), [AgSCN(PPh3)2]2]
cell morphology (apoptotic or necrotic features) [1]: morphology characteristic of necrosis

[AgSCN{P(4-FC6H4)3}2]2 [complex (3)]
toxicity on PBMCs (decrease in viability) [2]: much lower degree of toxicity; also recorded: significantly lower degree of toxicity

c1ccc([P+](c2ccccc2)(c2ccccc2)[Ag+]([P+](c2ccccc2)(c2ccccc2)c2ccccc2)([P+](c2ccccc2)(c2ccccc2)c2ccccc2)[P+](c2ccccc2)(c2ccccc2)c2ccccc2)cc1 [complex (9), AgNO3(PPh3)4]
toxicity to A-549 lung cancer cells (A-549 lung cancer cells [3]): higher toxicity level | increase in Caspase-3/7 expression (Caspase-3/7): 2.74 | signs of apoptosis (morphology) (A-549 lung cancer cells [4]): more effective
